Experimental data taken from patent US5328913A, “Minoxidil analogs as inhibitors of cell proliferation and lysyl hydroxylase” (priority 1992, dated 1994).

Columns and labels:
lysyl hydroxylase [1] = assay: Lysyl hydroxylase activity in fibroblasts treated with minoxidil and its hydroxy derivatives (Example 3); type: cell-based, human; conditions: for Fibroblast Lysyl Hydroxylase Activity: 48 hr
Protocol: Culture of human skin fibroblasts derived from an apparently normal adult were grown to confluent densities in Dulbecco's modified Eagle's medium supplemented with 10% (v/v) fetal calf serum. Thereafter, the medium was replaced with medium supplemented with 0.5% dialyzed fetal calf serum. […] In some experiments, minoxodil was dissolved in 95% (v/v) ethanol; the final concentration of minoxidil was 0.3 mM and that of ethanol was 0.3%. Cultures treated with ethanol only served as the control.
(§1) During the last 3 hr of treatment, cultures received 100 μM ascorbic acid. The enzyme activities in extracts of treated cells were measured by tritium-release assays described previously (Murad and Pinnell, J. Biol. Chem. 262:11,973 (1987)).

lysyl hydroxylase [2] = conditions: Murad and Pinnell 1987; cited from earlier work
[3] = tested on: Collagen Synthesis in Human Skin Fibroblasts; assay: Collagen synthesis in human skin fibroblasts; type: cell-based; conditions: 1 mM, 72 hr
Protocol: Culture of human skin fibroblasts derived from an apparently normal adult were grown to confluent densities in Dulbecco's modified Eagle's medium supplemented with 10% (v/v) fetal calf serum. Thereafter, the medium was replaced with medium supplemented with 0.5% dialyzed fetal calf serum. The cultures were treated for 72 hr with 1 mM minoxidil, 3'- hydroxyminoxidil,or 4'-hydroxyminoxidil (Upjohn) dissolved in aqueous medium. In some experiments, minoxodil was dissolved in 95% (v/v) ethanol; […]. Cultures treated with ethanol only served as the control.
During the last 6 hr of treatment, cultures were labeled with 20 μCi of L-[2,3-^3 H]proline in 1 ml of medium supplemented with 100 μM ascorbic acid. The amount of proline radioactivity incorporated into collagen in the medium and cells combined was measured after digestion with a bacterial collagenase, essentially as described previously (Freiberger et al, J. Invest. Dermatol. 75:425 (1980)).

[4] = in vivo; cited from earlier work
[5] = tested on: non-proliferating fibroblasts; assay: Cytotoxicity to non-proliferating fibroblasts (cell number per dish); type: cell-based; conditions: 5 mM, 72 hr
From the text: Certain aspects of the present invention are described in greater detail in the non-limiting Examples that follow. (See also Murad et al, Arch. Biochem. Biophys. 292:234 (1992)).

prolyl hydroxylase [6] = assay: Prolyl hydroxylase activity in fibroblasts treated with minoxidil and its hydroxy derivatives (Example 3); type: cell-based, human; conditions: 1 mM
Protocol: Culture of human skin fibroblasts derived from an apparently normal adult were grown to confluent densities in Dulbecco's modified Eagle's medium supplemented with 10% (v/v) fetal calf serum. Thereafter, the medium was replaced with medium supplemented with 0.5% dialyzed fetal calf serum. The cultures were treated for 72 hr with 1 mM minoxidil, 3'- hydroxyminoxidil,or 4'-hydroxyminoxidil (Upjohn) dissolved in aqueous medium. In some experiments, minoxodil was dissolved in 95% (v/v) ethanol; the final concentration of minoxidil was 0.3 mM and that of ethanol was 0.3%. Cultures treated with ethanol only served as the control.
as §1

prolyl hydroxylase [7] = assay: Prolyl hydroxylase activity in extracts of treated human skin fibroblasts (Example 1, tritium-release assay); type: cell-based; conditions: cultured fibroblasts, 72 h, Example 1
Protocol: (§2) Cultures of human skin fibroblasts grown to confluence were incubated for 72 h in medium supplemented with 1% ethanol containing various concentrations of minoxidil or deoxyminoxidil as indicated. Cells were then harvested, and the enzyme activities in extracts of these cells were measured by tritium-release assays (Murad and Pinnell, J. Biol. Chem. 262:11,973 (1987)). The results are expressed as percentages of zero-concentration values.
as §2, with “with 1% acetone containing various concentrations of minoxidil sulfate,” for “deoxyminoxidil”, “tritium release” for “tritium-release”
Skin fibroblast cultures derived from an apparently normal child (GM05659) were obtained from the Institute for Medical Research, Camden, N.J. The cells were subcultured by trypsinization and used before 25 population doublings. Typically, 4×10^5 cells were seeded onto 100-mm (diameter) plastic petri dishes and allowed to grow in 10 ml of Dulbecco's modified Eagle's minimum essential medium containing 5.6 mM glucose, buffered in pH 7.4 with 24 mM sodium biocarbonate/25 mM Hepes and supplemented with 20% (v/v) calf serum which had been inactivated for 30 min at 56° C. The cells were incubated at 37° C. in a humidified atmosphere of 5% CO2 plus 95% air.
After a week, the medium was replaced with medium supplemented with 0.5% heat-inactivated diaylzed calf serum, and the incubation was continued for 72 h in the presence of minoxidil or one of its structural analogs. The compounds were dissolved in 95% ethanol, except minoxidil sulfate which was dissolved in acetone; the final solvent concentration was 1% (v/v). During the last 3 h of incubation, cells received 100 μM Na L-ascorbate to ensure complete hydroxylation of the polypeptide precursors of precollagen (Murad et al, J. Invest. Dermatol. 75:404 (1980)).
The medium was then removed and the cells were washed twice with a solution containing 0.14 M NaCl, 5 mM KCl, 0.3 mM Na2 PO4, and 0.4 mM KH2 PO4, adjusted to pH 7.4. […] The trypsinization was terminated with 2 vol of 20% serum-supplemented medium, and the cell number in an aliquot of the suspension was determined using a Coulter counter. […]
The protein content of cell extracts was determined by a dye-binding technique using Bio-Rad reagent and protein standard (Bradford, Anal. Biochem. 72:248 (1976)).

Structure (SMILES): Nc1cc(N2CCCCC2)nc(N)[n+]1[O-] [Minoxidil]
- Fibroblast Lysyl Hydroxylase Activity (lysyl hydroxylase [1]; 1 mM): 378 cpm^3 H2 O/mg protein
- Lysyl hydroxylase activity, % of control level (lysyl hydroxylase [1]; 1 mM, 72 hr): 25%
- Lysyl Hydroxylase Activity (lysyl hydroxylase [1]; 1 mM, 72 hr (Table VI)): 308 cpm ^3 H2 O/mg protein
- Lysyl Hydroxylase Activity (lysyl hydroxylase [1]; 1 mM, 72 hr (description table)): 308 cpm^3 H2 O/mg protein
- lysyl hydroxylase suppressing activity at 5 mM (in words) (lysyl hydroxylase [1]; 5 mM): loses its effect
- Fibroblast Lysyl Hydroxylase Activity (lysyl hydroxylase [1]; 5 mM): 1321 cpm^3 H2 O/mg protein
- effect on lysyl hydroxylase in cultured fibroblasts (in words) (lysyl hydroxylase [2]): selectively decreased the activity of lysyl hydroxylase
- % Collagen Synthesized ([3]; mean ± SD of duplicate analysis of two cultures (Table VII)): 6.6 ± 0.7%
- inhibition at 1000 µM ([3]; Homo sapiens, Skin fibroblast, compared with control, read-out: reduction of synthesis of collagen relative to that of total protein): 25%
- antihypertensive / hypotensive activity (in words) [4]: hypotensive activity
- 10^-6 × No. of Cells/Dish [5]: 0.49 10^-6 × No. of Cells/Dish
- prolyl hydroxylase activity (in words) (prolyl hydroxylase [6]; 72 hr): remained unchanged
- Prolyl Hydroxylase Activity (prolyl hydroxylase [6]; 72 hr (Table VI)): 29446 cpm ^3 H2 O/mg protein
- Prolyl Hydroxylase Activity (prolyl hydroxylase [6]; 72 hr (description table)): 29446 cpm^3 H2 O/mg protein
- effect on prolyl hydroxylase activity (in words) (prolyl hydroxylase [7]): no significant effect on prolyl hydroxylase activity
